The data set can be described thus: log P, partitioning between octanol and water. The settings on record: octanol/water at 25° C.; usually determined with hexafluorophosphate as counterion. Format: physicochemical. Here is the method: To the skilled person, log P is a well known coefficient for describing the partitioning of a compound between octanol and water at ambient temperature (25° C.). Whereby P is the concentration of the bleach catalyst in octanol divided by the concentration of bleach catalyst in water. (Leo et al. Chem Rev 1971, 71, 525). The log P is usually determined in the presence of hexafluorophophate as the counterion.

On to `CN1CCN(C)CCN(C)CC1.CN1CCN(C)CCN(C)CC1.F[P-](F)(F)(F)(F)F.F[P-](F)(F)(F)(F)F.[Mn+4].[Mn+4].[O-2].[O-2].[O-2]` [Catalyst 1, Dimanganese-tris-μ-oxo-bis(1,4,7-trimethyl-1,4,7-triazacyclononane) bis(Hexafluorophosphate)], for which the “log P” value is recorded as “less than 3”. For the molecule “Dimanganese-tris-μ-oxo-bis(2-octyl-1,4,7-trimethyl-1,4,7-triazacyclononane) bis(Hexasulphate) [Catalyst 2]”, the “log P” value was “more than 3”.

These data come from patent publication US6479447B2, “Bleaching composition for dry cleaning containing transition metal bleach catalyst” (Unilever Home & Personal Care USA, division of Conopco, Inc., priority 1999, dated 2002).
